The values below come from patent US9580524B2, “Vinylcyclopropane, monomer composition, polymer, polymer composition, and article” (Dexerials Corporation, priority 2014, dated 2017).

The nature of data set [1]: Volume change upon polymerization (monomer and polymer density by dry automatic pycnometer). In kind it is physicochemical. To be noted: for Volume change: ((Monomer density)−(Polymer density))/(Monomer density)×100, positive = expansion, negative = shrinkage; for Polymer density: after polymerization; for Polymer density / Monomer density: 25° C.; for Monomer density: prior to polymerization. As for the experimental part:
Volume change relative to monomer volume refers to the change in volume of the polymer relative to the volume of the monomer or monomers that are constituent components of the polymer. This volume change relative to monomer volume is obtained through the following equation by measuring the density of the monomer(s) at 25° C. prior to polymerization (monomer density) and the density of the polymer at 25° C. after polymerization (polymer density). ((Monomer density)−(Polymer density))/(Monomer density)×100(%)
First, polymerization of the obtained monomer (compound represented by structural formula (6)) was performed as follows.
A freezing ampoule (20 mL) was charged with 4.03 mg of AIBN (4 mol %), 440.2 mg (0.61 mmol) of Ad-MVCP, and 0.267 g (0.31 mL) of toluene, and the monomer was dissolved. Thereafter, freeze drying was performed three times and dissolved oxygen was removed. The freezing ampoule was immersed in an oil bath and was heated for 48 hours at 60° C. to polymerize the monomer. After polymerization, the freezing ampoule was cooled by liquid nitrogen to quench radicals. Next, 50 mL of toluene was added to the freezing ampoule in order to dissolve undissolved components other than the polymer and suction filtration was then performed. Polymer filtered onto filter paper as a result was washed with toluene and acetone, was vacuum dried for 48 hours at 100° C., and was collected as a white solid polymer. The collected polymer was used as an evaluation sample.
The volume change upon polymerization was calculated using the following equation by measuring the monomer density and polymer density of each sample prepared by the procedure described above using a dry automatic pycnometer (AccuPyc II 1340 produced by Shimadzu Corporation). ((Monomer density)−(Polymer density))/(Monomer density)×100(%)
A positive calculated value indicates volume expansion whereas a negative calculated value indicates volume shrinkage.
Note that in Comparative Example 3, polymerization of the monomer was performed by bulk polymerization based on the aforementioned document. A freezing ampoule (20 mL) was charged with 15.8 mg (0.096 mmol) of AIBN and 1.000 g (2.41 mmol) of Me-MVCP, and the monomer was dissolved. Thereafter, freeze drying was performed three times and dissolved oxygen was removed. The freezing ampoule was immersed in an oil bath and was heated for 48 hours at 60° C. to polymerize the monomer. After polymerization, the freezing ampoule was cooled by liquid nitrogen to quench radicals. Next, 50 mL of toluene was added to the freezing ampoule in order to dissolve undissolved components other than the polymer and suction filtration was then performed. Polymer filtered onto filter paper as a result was sufficiently washed with toluene and acetone, was vacuum dried for 48 hours while heating at 100° C., and was collected as a white solid polymer. The collected polymer was used as an evaluation sample.
Note that in Example 2, 0.159 g (0.479 mmol) of DCP, 0.341 g (0.479 mmol) of Ad-MVCP, and 0.2 mL of toluene (dehydrated) were added into an ampoule with a stirrer, were heated to 70° C., and were homogenized by stirring. After performing cooling to room temperature, a dilute solution of AIBN (6.3 mg (0.038 mmol) of AIBN dissolved in 0.28 mL of toluene (dehydrated)) was added to the ampoule. The ampoule was sealed using a gas burner after performing freeze degassing of the ampoule. The ampoule was immersed in an oil bath and a reaction was carried out for 48 hours at 60° C. After the reaction, the ampoule was immersed in liquid nitrogen and a polymer was collected. The resultant polymer was sufficiently washed with toluene and acetone and was vacuum dried for 48 hours while heating at 100° C., and a white solid polymer was collected. The collected polymer was used as an evaluation sample.
Ad-MVCP in an amount of 0.153 g (0.215 mmol) and DCP in an amount of 0.072 g (0.216 mmol) were dissolved and homogenized in 0.3 mL of acetone. […]

Data set [2] can be described thus: Polymer dynamic viscoelasticity (DMA, tension mode) of the cured product. It counts as physicochemical. The following applies: for Tg (glass-transition temperature): maximum of tan δ, frequency 11.0 Hz. On the procedure: The obtained monomer was homogenized with 0.5 parts by mass of PERHEXA HC (producer: NOF Corporation) and 0.2 mL of acetone added thereto, was subsequently poured into a 10 mm×40 mm×0.5 mm silicone rubber sheet mold prepared on an aluminum plate, and was transferred into a vacuum oven. Acetone solvent was first vaporized while maintaining the temperature at room temperature and the pressure at 20 cmHg to 40 cmHg, and thereafter the pressure was restored to normal pressure and curing was performed for 5 hours at 140° C. to prepare a cured product. The cured product that was prepared was evaluated by measurement as described below using a tension mode of a dynamic mechanical analyzer (DMA).
The cured product was set in the dynamic mechanical analyzer (producer: TA Instruments, product name: RSA3) and the device was used to measure the storage modulus (E′) in a temperature range of from 30° C. to 300° C. with a heating rate of 10.0° C./min. Furthermore, the temperature corresponding to a maximum value of tan δ (loss modulus/storage modulus) obtained under a measurement condition of a frequency of 11.0 Hz was taken to be the glass-transition temperature (Tg).

Data set [3] in a line: Polymer heat resistance (thermogravimetric analyzer). It counts as physicochemical. To be noted: homopolymer. As for the experimental part:
Heat resistance of the polymer used in (i) evaluation of volume change upon polymerization was evaluated using a thermogravimetric analyzer (producer: Seiko Instruments Incorporated, product name: EXSTAR6000). Furthermore, thermogravimetric change of the obtained polymer was measured to obtain a temperature at which a 10% reduction in weight was reached and the 10% weight loss temperature was taken to be the pyrolysis temperature (Td^10).

Data set [4] can be described thus: Monomer solubility in various solvents. In kind it is physicochemical. To be noted: 40 mg monomer in 1.0 mL. As for the experimental part:
The solubility of 40 mg of the obtained monomer in 1.0 mL of various solvents (methyl ethyl ketone (MEK), acetone, propylene glycol monomethyl ether acetate (PGMEA), and cyclohexanone) was evaluated.

For data set [5] the following is noted: background statement; cited from earlier work.

As to “tricyclodecane dimethanol dimethacrylate [Comparative Example 1]”, the Volume change in data set [1] is on record as −8.5%. The compound further registered a Polymer density in data set [1] of 1.194 g/mL. This compound also had a Monomer density in data set [1] of 1.101 g/mL. Further, the “E′ (storage modulus)” value in data set [2] (50° C., 5 hours at 140° C.) is 1.70 × 10^9 Pa; in data set [2] (120° C.) it was 9.60 × 10^8 Pa; in data set [2] (140° C.) it was 8.00 × 10^8 Pa; in data set [2] (160° C.), 6.60 × 10^8 Pa. Moreover, the “Tg (glass-transition temperature)” value in data set [2] was greater than 271.1 °C.
Take `C=CC1CC1(C(=O)OC12CC3CC(CC(C3)C1)C2)C(=O)OC12CC3CC(C1)CC(OC(=O)C1(C(=O)OC45CC6CC(CC(C6)C4)C5)CC1C=C)(C3)C2` (stereo not shown) [Example 1, 1,3-bis[(1-adamantyloxycarbonyl-2-vinylcyclopropane-1-yl)carbonyloxy]adamantane]: the “Td^10 (pyrolysis temperature, 10% weight loss temperature)” value in data set [3] was 399 °C. The Volume change entry in data set [1] is on record as “+6.1%”. Besides, in data set [1], the Polymer density turned out to be 1.198 g/mL. Further, the Monomer density in data set [1] was 1.275 g/mL. The Solubility entry in data set [4] (Acetone), in data set [4] (Cyclohexanone), in data set [4] (MEK) and in data set [4] (PGMEA) was “Excellent” throughout. In addition, the “E′ (storage modulus)” value in data set [2] (50° C., 5 hours at 140° C.) is on record as 1.10 × 10^9 Pa; in data set [2] (120° C.), 7.40 × 10^8 Pa; in data set [2] (140° C.), 6.60 × 10^8 Pa; in data set [2] (160° C.), 7.00 × 10^8 Pa. Also, in data set [2], the “Tg (glass-transition temperature)” value is 235 °C.
In the case of `C=CC1CC1(C(=O)OC12CC3CC(CC(C3)C1)C2)C(=O)OC12CC3CC(CC(C3)C1)C2` (stereo not shown) [Comparative Example 2, 1,1-bis[(1-adamantyloxy)carbonyl]-2-vinylcyclopropane], the “Td^10 (pyrolysis temperature, 10% weight loss temperature)” value in data set [3] turned out to be 361 °C. The Volume change result in data set [1] is “+4.3%”. In addition, the Polymer density in data set [1] stood at 1.127 g/mL. For the same compound, the Monomer density in data set [1] amounted to 1.178 g/mL. Moreover, the “solubility in solvents such as acetone” value in data set [5] is recorded as “poor”. For the same compound, the Solubility result in data set [4] (Acetone) was “Poor”; in data set [4] (Cyclohexanone), “Mediocre”; in data set [4] (MEK), “Poor”; in data set [4] (PGMEA) it was “Poor”. Moreover, in data set [2], the “Tg (glass-transition temperature)” value came out at 23 °C.
